In general, pKi refers to −log10 of the Ki, conventionally taken in molar units.

The target of one data set is Wistar rat heart PBR (Rattus norvegicus (Rat), UniProt P16257). Briefly: In vitro potency assay: competition for binding to PBR against 0.3 nM [3H]-PK-11195. How it is done:
The reaction was carried out in 50 mM Tris-HCl, pH 7.4 10 mM MgCl2 for 15 minutes at 25° C.

Data set [1] concerns the target T1, PBR (Rattus norvegicus (Rat), UniProt P16257). The data set is described as follows: Autoradiography using facial nerve axotomy (FNA) model. The note with it: facial nucleus, 30 minutes after injection. The data set is classed as in vivo. How it is done: For in vivo studies, male Wistar rats (180-200 g) were used. Under Isoflurane anaesthesia, the hair from the right side of the auricular region was removed. An infraauricular incision was made and the main trunk of the facial nerve identified. The facial nerve was severed behind the ear at the exit from the stylomastoid foramen. The wound was sutured and animals left to recover. Seven days post-surgery animals were injected with ˜5-10 MBq in vivo imaging agent 1 via the lateral tail vein. Animals were killed 30 minutes later and brain stem removed and frozen in isopentane. Cryostat sections (12 μm) of brainstem containing both facial nuclei were mounted on glass slides and exposed to phosphor screen overnight.
Screens were then scanned on the Storm (GE Healthcare) phosphor-imager and the resultant scan was analysed and quantified using ImageQuant TL (GE Healthcare).

The target in data set [2] is T1, PBR. Briefly: In vivo biodistribution, olfactory bulb:striatum uptake. The note with it: 18F-labelled agents, adult male Wistar rats, lateral tail vein, 30 min post-injection. As for the experimental part: In vivo imaging agents 1-7 as prepared in Examples 7, 8 and 9 above were tested in the in vivo biodistribution model and their biodistribution compared to that of the prior art compound [^18F]FE-PBR (prepared according to Example 14 of WO 2007/057705).
Adult male Wistar rats (200-300 g) were injected with 1-3 MBq of each in vivo imaging agent via the lateral tail vein. At 2 10,30 or 60 min (n=3) after injection, rats were euthanised and tissues or fluids were sampled for radioactive measurement by liquid scintillation counting.

Setting [3] is: non-radioactive analogues, Wistar rat heart PBR, vs 0.3 nM [3H]-PK-11195, 15 minutes at 25° C., read-out: Ki.

pKi: −log10 of the molar value. Where two headings read alike, the source gives them in different places.

On to `CCN(CC)C(=O)C1Sc2ccccc2-c2c1c1cc(OC)ccc1n2CCF` (racemic) [Imaging Agent 1, (+-)-11-(2-fluoroethyl)-8-methoxy-6,11-dihydro-5-thia-11-aza-benzo[a]fluorene-6-carboxylic acid diethyl amide], for which the negative-log Ki (pKi) at Wistar rat heart PBR (setting [3]) is 9.43. In addition, the “Average intensity in the lesioned side” value at PBR [1] (lesioned side, seven days post-surgery) was 7.75±0.95. Moreover, the “Average intensity in the non-lesioned side” value on PBR [1] (non-lesioned side) turned out to be 3.73±0.36.

Turning to `CCN(CC)C(=O)C1Sc2ccccc2-c2c1c1ccccc1n2CC[18F]` (stereo not shown) [[^18F]FE-PBR, reference compound], the negative logarithm of the Ki (pKi) on Wistar rat heart PBR was 9.17. In addition, the “OB:Striatum @ 30 min” value at PBR [2] came to 1.42.

In the case of `CCOc1ccc2c(c1)c1c(n2CCF)-c2ccccc2SC1C(=O)N(CC)CC` (stereo not shown) [compound 6], the pKi at Wistar rat heart PBR (setting [3]) was 9.28. In addition, the “OB:Striatum @ 30 min” value at PBR [2] is given as 2.67.

Turning to `CCN(CC)C(=O)C1Sc2ccccc2-c2c1c1c(OC)cccc1n2CCF` (stereo not shown) [compound 7], the pKi on Wistar rat heart PBR (setting [3]) is 8.96. Besides, the “OB:Striatum @ 30 min” value at PBR [2] amounted to 2.42.

On to “(+-)-4-fluoro-11-(2-fluoroethyl)-6,11-dihydro-5-thia-11-aza-benzo[a]fluorene-6-carboxylic acid diethyl amide [Imaging Agent 4]”, for which the negative logarithm of the Ki (pKi) at Wistar rat heart PBR (setting [3]) is 9.03. Also, the “OB:Striatum @ 30 min” value at PBR [2] is 2.00.

Turning to “(+-)-11-(2-fluoroethyl)-10-methoxy-6,11-dihydro-5-thia-11-aza-benzo[a]fluorene-6-carboxylic acid diethyl amide [Imaging Agent 3]”, the negative-log Ki (pKi) on Wistar rat heart PBR (setting [3]) is 9.40. Moreover, at PBR [2], the “OB:Striatum @ 30 min” value came to 3.50.

The values are drawn from patent publication US9481685B2, “Imaging neuroinflammation” (GE Healthcare Limited, priority 2008, dated 2016).
